Test results taken from article PMC4699555 (Journal of pharmaceutical sciences, 2012).
Where two headings read alike, the source gives them in different places.

Experiments:
[1] = type: in vivo, Sprague-Dawley rats
[2] = cited from earlier work
[3] = cited from earlier work; remark: listed apart in the source
[4] = cited from earlier work; remark: listed apart in the source
[5] = human studies; cited from earlier work
[6] = cited from earlier work; remark: listed apart in the source

| Time up to which the metabolite could be detected in rat serum ([1]; after i.v. (10 mg/kg) and oral (50 mg/kg) vorinostat) | Detection of metabolite in urine ([1]; rats, after i.v. and oral vorinostat) | SMILES | Log partition coefficient [2] | Aqueous solubility [3] [µg/mL] | Elimination half-life ([4]; animal studies) | Oral bioavailability ([4]; rats, oral 10 mg/kg) [%] | Tmax ([4]; rats, oral 10 mg/kg) [min] | Elimination half-life [5] | Biopharmaceutics Classification System (BCS) class [6] |
| --- | --- | --- | --- | --- | --- | --- | --- | --- | --- |
| up to 12 h | detected | O=C(O)CCC(=O)Nc1ccccc1 [4-anilino-4-oxobutanoic acid] |  |  |  |  |  |  |  |
|  |  | O=C(CCCCCCC(=O)Nc1ccccc1)NO [Vorinostat, suberoylanilide hydroxamic acid] | 1.9 | 200 | approximately 2 hours | 11 | 18 ± 6 | approximately 2 hours | Class IV |
